Assay results as given in US11446351B2, “Composition for treating one or more estrogen related diseases” (LIFEARC, priority 2018, dated 2022).
Where a name gives a salt, the structure may show the parent alone. Where a SMILES comes first, the peptide text is derived from it. [ ]: non-standard residue; d: D form. dPhe(4-Cl) = N[C@H](Cc1ccc(Cl)cc1)C(=O)O; d2Nal = N[C@H](Cc1ccc2ccccc2c1)C(=O)O; d(hCit) = NC(=O)NCCCC[C@@H](N)C(=O)O; Lys(iPr) = CC(C)NCCCC[C@H](N)C(=O)O; d3Pal = N[C@H](Cc1cccnc1)C(=O)O

Assays:
women = assay: Phase I study (Example 2): estradiol concentrations in serum; type: in vivo, human
Procedure: Two formulations comprising either 45 mg or 30 mg Teverelix TFA and a placebo formulations, were prepared as described in example 1, i.e. the following formulations were prepared
The respective formulations were each injected subcutaneous (s.c.) to 24 subjects—12 per group i.e. 8 on active drug 4 on placebo per group. All subjects received a dose on either the active or placebo s.c. on day 3±1 of the menstrual cycle, i.e. • A single dosage of formulation B (45 mg Teverelix TFA) administered s.c. on day 3±1 of the menstrual cycle, • A single dosages of formulation C (30 mg Teverelix TFA) administered s.c. on day 3±1 of the menstrual cycle, and • A single dosage of formulation B placebo or formulation C placebo administered s.c. on day 3±1 of the menstrual cycle.
The concentration of Teverelix TFA, and Estradiol was measured over a period of 63 days. Additionally, the effect on Teverelix TFA on two bone markers was measured.
The mean estradiol concentration in the respective subjects was measured as described in example 1.

healthy female subjects = assay: Phase I trial (Example 1): estradiol concentration in serum; type: in vivo, human
Procedure: The Teverelix TFA formulations were manufactured as followed. 0.8 ml or 0.6 ml 5% mannitol were added to the relevant dosage of 60 or 45 mg of the LHRH antagonist Teverelix® trifluoroacetate, respectively. The mixture was stirred using vortex during one minute providing two dosage formulations of Teverelix TFA in a flowing milky pearly microcrystalline aqueous suspensions. The suspensions are made of microcrystals of about 10 μm length. Corresponding placebo formulations, without Teverelix TFA was also prepared
A phase I clinical trial with formulation A and B (and placebo) was conducted in order to evaluate the pharmacokinetics, pharmacodynamics, safety and tolerability of Teverelix TFA.
The formulations were each injected subcutaneous (s.c.) as follows: • A single dosage of formulation A (60 mg Teverelix TFA) administered s.c. on day 3±1 of the menstrual cycle, to 8 healthy female subjects • A single dosage of formulation A placebo was administered s.c. to on day 3±1 of the menstrual cycle, to 4 healthy female subjects • Two dosages of formulation B (45 mg Teverelix TFA) administered s.c. to 8 healthy female subjects. The first dosage on day 3±1 of the menstrual cycle and a second dosage administered on day 10±1 of the menstrual cycle, and • two dosages of formulation B placebo was administered s.c. to 4 healthy female subjects. The first dosage on day 3±1 of the […] menstrual cycle and a second dosage administered on day 10±1 of the menstrual cycle.
The mean estradiol concentration in the respective subjects was measured. The results are shown in table 1 and 2, respectively and is depicted in FIG. 1 in relation to the placebo data.

CC(=O)N[C@H](Cc1ccc2ccccc2c1)C(=O)N[C@H](Cc1ccc(Cl)cc1)C(=O)N[C@H](Cc1cccnc1)C(=O)N[C@@H](CO)C(=O)N[C@@H](Cc1ccc(O)cc1)C(=O)N[C@H](CCCCNC(N)=O)C(=O)N[C@@H](CC(C)C)C(=O)N[C@@H](CCCCNC(C)C)C(=O)N1CCC[C@H]1C(=O)N[C@H](C)C(N)=O [Teverelix TFA, N-Ac-d-Nal^1,d-pCl-Phe^2,d-Pal^3,d-(Hci)^6,Lys(iPr)^8,d-Ala^10 trifluoroacetate] (Ac-[d2Nal][dPhe(4-Cl)][d3Pal]SY[d(hCit)]L[Lys(iPr)]P[dA]-NH2; C-terminus assumed)
Mean Estradiol concentration in serum (women; 30 mg dosage, day 0 (baseline)): 27.7 ng/L | Mean Estradiol concentration in serum (women; 30 mg dosage, day 0.25): 16.1 ng/L | Mean Estradiol concentration in serum (women; 30 mg dosage, day 0.5): 13.8 ng/L | Mean Estradiol concentration in serum (women; 30 mg dosage, day 1): 12.3 ng/L | Mean Estradiol concentration in serum (women; 30 mg dosage, day 2 (nadir)): 11.2 ng/L | Mean Estradiol concentration in serum (women; 30 mg dosage, day 3): 13.7 ng/L | Mean Estradiol concentration in serum (women; 30 mg dosage, day 4): 19.4 ng/L | Mean Estradiol concentration in serum (women; 30 mg dosage, day 5): 22.6 ng/L | Mean Estradiol concentration in serum (women; 30 mg dosage, day 6): 24.4 ng/L | Mean Estradiol concentration in serum (women; 30 mg dosage, day 7): 31.0 ng/L | Mean Estradiol concentration in serum (women; 30 mg dosage, day 9): 50.2 ng/L | Mean Estradiol concentration in serum (women; 30 mg dosage, day 11): 46.5 ng/L | Mean Estradiol concentration in serum (women; 30 mg dosage, day 13): 59.9 ng/L | Mean Estradiol concentration in serum (women; 30 mg dosage, day 15): 36.3 ng/L | Mean Estradiol concentration in serum (women; 30 mg dosage, day 17): 38.7 ng/L | Mean Estradiol concentration in serum (women; 30 mg dosage, day 19): 51.4 ng/L | Mean Estradiol concentration in serum (women; 30 mg dosage, day 21): 64.5 ng/L | Mean Estradiol concentration in serum (women; 30 mg dosage, day 28): 67.4 ng/L | Mean Estradiol concentration in serum (women; 30 mg dosage, day 35): 60.7 ng/L | Mean Estradiol concentration in serum (women; 30 mg dosage, day 42): 58.6 ng/L | Mean Estradiol concentration in serum (women; 30 mg dosage, day 49): 60.5. ng/L | Mean Estradiol concentration in serum (women; 30 mg dosage, day 56): 105.1 ng/L | Mean Estradiol concentration in serum (women; 30 mg dosage, day 63): 90.7 ng/L | mean estradiol level over the prolonged period (women; 30 mg dose): 40.5 pg/mL | day on which estradiol levels returned to baseline (women; 30 mg group): ≤ 8 days | women who ovulated during the study period (based on peak estradiol levels) (women; 30 mg group): one of the 8 | Mean Estradiol concentration in serum (women; 45 mg dosage, day 0 (baseline)): 21.5 ng/L | Mean Estradiol concentration in serum (women; 45 mg dosage, day 0.25): 16.3 ng/L | Mean Estradiol concentration in serum (women; 45 mg dosage, day 0.5): 11.5 ng/L | Mean Estradiol concentration in serum (women; 45 mg dosage, day 1): 8.4 ng/L | Mean Estradiol concentration in serum (women; 45 mg dosage, day 2 (nadir)): 7.5 ng/L | Mean Estradiol concentration in serum (women; 45 mg dosage, day 3): 11.4 ng/L | Mean Estradiol concentration in serum (women; 45 mg dosage, day 4): 12.3 ng/L | Mean Estradiol concentration in serum (women; 45 mg dosage, day 5): 13.3 ng/L | Mean Estradiol concentration in serum (women; 45 mg dosage, day 6): 17.5 ng/L | Mean Estradiol concentration in serum (women; 45 mg dosage, day 7): 17.8 ng/L | Mean Estradiol concentration in serum (women; 45 mg dosage, day 9): 22.6 ng/L | Mean Estradiol concentration in serum (women; 45 mg dosage, day 11): 36.4 ng/L | Mean Estradiol concentration in serum (women; 45 mg dosage, day 13): 54.9 ng/L | Mean Estradiol concentration in serum (women; 45 mg dosage, day 15): 91.6 ng/L | Mean Estradiol concentration in serum (women; 45 mg dosage, day 17): 105.9 ng/L | Mean Estradiol concentration in serum (women; 45 mg dosage, day 19): 115.1 ng/L | Mean Estradiol concentration in serum (women; 45 mg dosage, day 21): 126.1 ng/L | Mean Estradiol concentration in serum (women; 45 mg dosage, day 28): 80.9 ng/L | Mean Estradiol concentration in serum (women; 45 mg dosage, day 35): 41.6 ng/L | Mean Estradiol concentration in serum (women; 45 mg dosage, day 42): 67.4 ng/L | Mean Estradiol concentration in serum (women; 45 mg dosage, day 49): 92.4 ng/L | Mean Estradiol concentration in serum (women; 45 mg dosage, day 56): 104.9 ng/L | Mean Estradiol concentration in serum (women; 45 mg dosage, day 63): 47.1 ng/L | mean estradiol level over the prolonged period (women; 45 mg dose): 49.0 pg/mL | day on which estradiol levels returned to baseline (women; 45 mg group): ≤ 9 days | women who ovulated during the study period (based on peak estradiol levels) (women; 45 mg group): 5 of the 8 | Mean Estradiol concentration in serum (women; 30 + 45 mg groups, day 0 (baseline)): 24.6 ng/L | Mean Estradiol concentration in serum (women; 30 + 45 mg groups, day 0.25): 16.2 ng/L | Mean Estradiol concentration in serum (women; 30 + 45 mg groups, day 0.5): 12.7 ng/L | Mean Estradiol concentration in serum (women; 30 + 45 mg groups, day 1): 10.4 ng/L | Mean Estradiol concentration in serum (women; 30 + 45 mg groups, day 2): 9.4 ng/L | Mean Estradiol concentration in serum (women; 30 + 45 mg groups, day 3): 12.6 ng/L | Mean Estradiol concentration in serum (women; 30 + 45 mg groups, day 4): 15.8 ng/L | Mean Estradiol concentration in serum (women; 30 + 45 mg groups, day 5): 17.9 ng/L | Mean Estradiol concentration in serum (women; 30 + 45 mg groups, day 6): 20.9 ng/L | Mean Estradiol concentration in serum (women; 30 + 45 mg groups, day 7): 24.4 ng/L | Mean Estradiol concentration in serum (women; 30 + 45 mg groups, day 9): 36.4 ng/L | Mean Estradiol concentration in serum (women; 30 + 45 mg groups, day 11): 41.8 ng/L | Mean Estradiol concentration in serum (women; 30 + 45 mg groups, day 13): 57.2 ng/L | Mean Estradiol concentration in serum (women; 30 + 45 mg groups, day 15): 64.0 ng/L | Mean Estradiol concentration in serum (women; 30 + 45 mg groups, day 17): 72.3 ng/L | Mean Estradiol concentration in serum (women; 30 + 45 mg groups, day 19): 83.3 ng/L | Mean Estradiol concentration in serum (women; 30 + 45 mg groups, day 21): 95.3 ng/L | Mean Estradiol concentration in serum (women; 30 + 45 mg groups, day 28): 74.1 ng/L | Mean Estradiol concentration in serum (women; 30 + 45 mg groups, day 35): 51.1 ng/L | Mean Estradiol concentration in serum (women; 30 + 45 mg groups, day 42): 63.0 ng/L | Mean Estradiol concentration in serum (women; 30 + 45 mg groups, day 49): 76.4 ng/L | Mean Estradiol concentration in serum (women; 30 + 45 mg groups, day 56): 105.0 ng/L | Mean Estradiol concentration in serum (women; 30 + 45 mg groups, day 63): 68.9 ng/L | time at which estradiol returned to near baseline and menses reoccurred in at least one subject (healthy female subjects; 2 × 45 mg one week apart): 1008 h p.f.a | estradiol mean (SD) concentration relative to baseline (healthy female subjects; 2 × 45 mg, after first injection, 48 h p.f.a.): −14.56 (9.95) ng/L | estradiol mean (SD) concentration relative to baseline (healthy female subjects; 2 × 45 mg, after second injection, 312 h p.f.a.): −14.20 (10.85) ng/L | estradiol concentrations when compared to placebo (healthy female subjects; both doses (60 mg; 2 × 45 mg), FIG. 1): significantly reduced | time at which estradiol returned to near baseline and menses reoccurred in at least one subject (healthy female subjects; single 60 mg): 840 h p.f.a | estradiol mean (SD) concentration relative to baseline (healthy female subjects; single 60 mg, 264 h p.f.a): −31.22 (23.11) ng/L | estradiol mean (SD) concentration relative to baseline (healthy female subjects; single 60 mg, 456 h p.f.a): −1.04 (90.98) ng/L
